{
  "source": "patent US20230082611A1",
  "about": "“COMPOSITIONS AND METHODS FOR THE TREATMENT OF RESPIRATORY SYNCYTIAL VIRUS” (Cidara Therapeutics, Inc., priority 2019, published 2023)",
  "key": {"[1]": {"assay": "Inherent cytotoxicity run in parallel with the CPE assay (CellTiter-Glo)", "assay_type": "cell-based", "conditions": "human, HEp-2 cells, 4 days post treatment", "procedure": "(§1) In parallel with the CPE assay, the inherent cytotoxicity of several test articles was also determined. Briefly, ten four-fold serial dilutions of each TA starting at 10 μM were prepared in triplicate for inoculation with HEp-2 cells in 96-well culture plates. The cell viability was determined four days post treatment using CellTiter-Glo kit."}, "RSV Long strain": {"test_system": "RSV Long strain", "assay": "RSV microneutralization assay, RSV Long strain", "assay_type": "cell-based", "conditions": "MOI 0.002, HEp-2 cells, day 6, read-out: RSV Long EC50", "procedure": "(§2) Duplicate 10-fold serial dilutions of compound in DMEM with 2% HI-FBS, 1× P/S, 2 mM L-Gln were prepared in 96-well tissue culture plates at 60 μL/well. The RSV Long strain (RetroVirox, San Diego), RSV A2 strain (Virapur, San Diego), RSV B1 strain (RetroVirox, San Diego), or RSV strain CH18537 (RetroVirox, San Diego), were diluted in DMEM with 2% HI-FBS, 1× P/S, 2 mM L-Gln and 60 μL/well added to 60 μL compound for a multiplicity of infection (MOI) of 0.002 (Long, A2), 0.003 (B1), or 0.004 (CH18537). Virus only (no drug) and cells only (no virus, no drug) controls were included on each plate. The compound-virus mix was incubated for 1 h at 37° C. and 5% CO2. After 1 h, medium was removed from HEp-2 cells by aspiration and wells washed once with 100 μL/well 1×PBS pH 7.4 (Fisher cat #MT21040CM). The compound-virus mix (100 μL/well) was added to the cells and incubated for 1 h at 37° C. and 5% CO2 prior to addition of 100 μL/well of DMEM with 2% HI-FBS, 1× P/S, 2 mM L-Gln (200 μL final vol) and incubation at 37° C. and 5% CO2. On day 6 post infection, supernatant was aspirated and cells fixed with 100 μL/well ice-cold 80% acetone in 1×PBS for 20 min at 4° C. The acetone was aspirated and plates air-dried for 20 min at room temperature. The plates were washed 3× with 200 μL/well 1×PBS, 0.05% Tween-20 (PBST) and blocked with 200 μL/well 5% non-fat dry milk (Fisher cat #50-195-952) in PBST for 1 h with shaking (500 rpm) on an orbital plate shaker. The blocking solution was discarded and cells incubated with 100 μL/well mouse anti-F protein antibody (MilliporeSigma cat #MAB8599) diluted 1:2,000 in diluent (blocking solution diluted 1:1 in 1×PBS pH 7.4) for 2 h with shaking. Plates were washed 5× with 300 μL/well PBST and incubated with 100 μL/well HRP-conjugated goat anti-mouse IgG antibody (SouthernBiotech cat #1030-05) diluted 1:1,000 in diluent for 1 h with shaking. Plates were washed 5× with 300 μL/well PBST and incubated with 100 μL/well TMB substrate (Fisher cat #BDB555214) for ˜5 min. The reaction was stopped with 100 μL/well 1N H2SO4. Absorbance was read at 450 nm with an EnSpire multimode plate reader (PerkinElmer). The mean A450 for the cells only control was subtracted from all A450 values, and the percent virus neutralisation calculated for each compound concentration, relative to the virus only control."}, "[2]": {"test_system": "RSV (Respiratory Syncytial Virus strain A2)", "assay": "RSV cytopathic effects (CPE) assay", "assay_type": "cell-based", "conditions": "human respiratory syncytial virus, 96 h; RSV A2, MOI 0.01, HEp-2 cells, day 4, crystal violet; average of duplicate wells; read-out: EC50", "procedure": "The activity of anti-RSV compounds and conjugates was determined using an in vitro cell-based assay following a standard protocol in the field. Briefly, ten four-fold serial dilutions of each test article (TA) starting at 10 μM were prepared in duplicate and incubated with RSV (Respiratory Syncytial Virus strain A2) at a multiplicity of infection (MOI) of 0.01, for one hour. The RSV-TA mix was then added to HEp-2 cells seeded in 96-well plates and incubated for one hour."}, "RSV B1 strain": {"test_system": "RSV B1 strain", "assay": "RSV microneutralization assay, RSV B1 strain", "assay_type": "cell-based", "conditions": "human respiratory syncytial virus; MOI 0.003, HEp-2 cells, day 6", "procedure": "(§3) HEp-2 cells (ATCC #CCL-23) were seeded at 5E4/well/200 μL in DMEM (Fisher cat #11965118) supplemented with 10% heat-inactivated (HI) fetal bovine serum (HI-FBS; Fisher cat #10-082-147), 1× penicillin-streptomycin (P/S, 100 μg/mL; Fisher cat #MT30002C), and 1× L-glutamine (L-Gln, 2 mM; Fisher cat #25030-164) in 96-well tissue culture treated plates (Fisher cat #08-772-17) and incubated overnight at 37° C. and 5% CO2. Duplicate 10-fold serial dilutions of compound in DMEM with 2% HI-FBS, 1× P/S, 2 mM L-Gln were prepared in 96-well tissue culture plates at 60 μL/well. The RSV Long strain (RetroVirox, San Diego), RSV A2 strain (Virapur, San Diego), RSV B1 strain (RetroVirox, San Diego), or RSV strain CH18537 (RetroVirox, San Diego), were diluted in DMEM with 2% HI-FBS, 1× P/S, 2 mM L-Gln and 60 μL/well added to 60 μL compound for a multiplicity of infection (MOI) of 0.002 (Long, A2), 0.003 (B1), or 0.004 (CH18537). Virus only (no drug) and cells only (no virus, no drug) controls were included on each plate. The compound-virus mix was incubated for 1 h at 37° C. and 5% CO2. […] Absorbance was read at 450 nm with an EnSpire multimode plate reader (PerkinElmer). The mean A450 for the cells only control was subtracted from all A450 values, and the percent virus neutralisation calculated for each compound concentration, relative to the virus only control."}, "RSV A2 strain": {"test_system": "RSV A2 strain", "assay": "RSV microneutralization assay, RSV A2 strain", "assay_type": "cell-based", "conditions": "MOI 0.002, HEp-2 cells, day 6", "procedure": "as §2, with “HEp-2 cells (ATCC #CCL-23) were seeded at 5E4/well/200 μL in DMEM (Fisher cat #11965118) supplemented with 10% heat-inactivated (HI) fetal bovine serum (HI-FBS; Fisher cat #10-082-147), 1× penicillin-streptomycin (P/S, 100 μg/mL; Fisher cat #MT30002C), and 1× L-glutamine (L-Gln, 2 mM; Fisher cat #25030-164) in 96-well tissue culture treated plates (Fisher cat #08-772-17) and incubated overnight at 37° C. and 5% CO2. Duplicate” for “Duplicate”"}, "RSV": {"test_system": "RSV", "conditions": "prophylactic use; cited from earlier work"}, "HEp-2 cells": {"test_system": "HEp-2 cells", "assay": "Inherent cytotoxicity run in parallel with the CPE assay (CellTiter-Glo)", "assay_type": "cell-based", "conditions": "4 days post treatment, DMSO, value in %", "procedure": "as §1"}, "RSV strain CH18537": {"test_system": "RSV strain CH18537", "assay": "RSV microneutralization assay, RSV strain CH18537", "assay_type": "cell-based", "conditions": "human respiratory syncytial virus; MOI 0.004, HEp-2 cells, day 6", "procedure": "as §3"}, "RSV Long": {"test_system": "RSV Long", "assay": "RSV plaque reduction assay, RSV Long", "assay_type": "cell-based", "conditions": "human respiratory syncytial virus, HEP-2 cells, 6 days, read-out: EC50 RSV Long MOI 0.0001", "procedure": "(§4) An RSV plaque reduction assay was performed according to the following protocol. On Day 1, HEP-2 cells were seeded in 24-well plates at 5×10E5 cells/well/500 ul. On Day 2, once the cells are at 100% confluency, the cells were infected at a viral dilution of approximately 30 plaques per well in DMEM+2% FBS infection buffer and treated with compound. The medium was aspirated and cells were infected with 90 ul of viral dilution per well. Then, cells were treated with 10 ul of 10× compound resulting in a final concentration of between 1 nM-10 uM of the compound. The cells were incubated for 2 h at room temperature, rocking every 15 minutes. After 2 h, the inoculum/compound mixture is removed. 450 ul of overlay media (1 part Avicel 2.5%; 1 part DMEM+2% FBS) was added to the well and the cells were treated with 50 ul of 10× compound resulting in a final concentration of 1 nM-10 uM of the compound. The cells were incubated for 6 days at 37 deg C.\n(§5) For staining and quantification: The infected cell plates were fixed with 100% methanol for 10 to 30 minutes. The plates were washed three times with 5% milk/PBS, 1 mL/well. A primary antibody, goat anti-RSV polyclonal antibody (Chemicon Cat #AB1128), diluted in 5% milk/PBS at 1:1000 was put onto each well. […] The plates were rinsed 3 times with deionized water, air-dried and the number of plaques was counted."}, "RSV B1": {"test_system": "RSV B1", "assay": "RSV plaque reduction assay, RSV B1", "assay_type": "cell-based", "conditions": "human respiratory syncytial virus, HEP-2 cells, 6 days, read-out: EC50 RSV B1 MOI 0.0001", "procedure": "as §4, §5"}, "[3]": {"conditions": "human respiratory syncytial virus"}},
  "note": "Where two headings read alike, the source gives them in different places.",
  "data": [
    {"compound": "C#CCOCCOCCOCCOCCC(=O)N[C@H]1CCN(c2nc3cc([C@@H]4CCCCN4C(=O)c4cc(Cl)ccc4NS(C)(=O)=O)nn3cc2C)C1", "note": "[Int-9]", "values": [
      {"measurement": "CC50 at 4 days", "setting": "[1]", "value": 49700, "unit": "nM"},
      {"measurement": "EC50", "setting": "RSV Long strain; [3]", "value": 1500, "unit": "nM"},
      {"measurement": "EC50", "setting": "[2]", "value": 272, "unit": "nM"}
    ]},
    {"compound": "C#CCOCCOCCOCCOCCn1c(CN2C(=O)C3(CCN(C(=O)OC(C)(C)C)CC3)c3ccncc32)nc2cc(Cl)ccc21", "note": "[Int-41]", "values": [
      {"measurement": "EC50", "setting": "RSV B1 strain", "value": 3.6, "unit": "nM"},
      {"measurement": "EC50", "setting": "RSV Long strain; [3]", "value": 14, "unit": "nM"},
      {"measurement": "EC50", "setting": "RSV A2 strain; [3]", "value": 15, "unit": "nM"}
    ]},
    {"compound": "C#CCOCCOCCOCCOCCN[C@H]1CCN(c2nc3cc(C4CCCCN4C(=O)c4cc(Cl)ccc4NS(C)(=O)=O)nn3cc2C)C1", "note": "(some centres unmarked) [Int-7]", "values": [
      {"measurement": "CC50 at 4 days", "setting": "[1]", "value": 10400, "unit": "nM"},
      {"measurement": "EC50", "setting": "RSV Long strain; [3]", "value": 18, "unit": "nM"},
      {"measurement": "EC50", "setting": "[2]", "value": 0.353, "unit": "nM"}
    ]},
    {"compound": "Palivizumab", "values": [
      {"measurement": "EC50", "setting": "RSV Long strain", "value": 17, "unit": "nM"},
      {"measurement": "EC50", "setting": "RSV A2 strain", "value": 21, "unit": "nM"},
      {"measurement": "effective at reducing hospitalization rates", "setting": "RSV", "value": 60, "unit": "%"}
    ]},
    {"compound": "C[S+](C)[O-]", "note": "[DMSO]", "values": [
      {"measurement": "CC50", "setting": "HEp-2 cells", "value": 1.17, "unit": "%"}
    ]},
    {"compound": "C#CCOCCOCCOCCOCCC(=O)NCCCCn1c(CN2C(=O)C3(CCN(C(=O)OC(C)(C)C)CC3)c3ccncc32)nc2cc(Cl)ccc21", "note": "[Int-35]", "values": [
      {"measurement": "EC50", "setting": "RSV Long strain; [3]", "value": 0.34, "unit": "nM"},
      {"measurement": "EC50", "setting": "RSV A2 strain; [3]", "value": 0.74, "unit": "nM"}
    ]},
    {"compound": "NC(=O)c1ncn([C@@H]2O[C@H](CO)[C@@H](O)[C@H]2O)n1", "note": "[Ribavirin, reference compound]", "values": [
      {"measurement": "CC50 at 4 days", "setting": "[1]", "value": 174000, "unit": "nM"},
      {"measurement": "EC50", "setting": "[2]", "value": 25800, "unit": "nM"}
    ]},
    {"compound": "Cc1cn2nc([C@@H]3CCCCN3C(=O)c3cc(Cl)ccc3NS(C)(=O)=O)cc2nc1N1CC[C@H](N)C1", "note": "[Presatovir, reference compound]", "values": [
      {"measurement": "EC50", "setting": "RSV B1 strain", "value": 0.82, "unit": "nM"},
      {"measurement": "EC50", "setting": "RSV strain CH18537", "value": 0.32, "unit": "nM"},
      {"measurement": "EC50", "setting": "RSV Long strain; [3]", "value": 0.0084, "unit": "nM"},
      {"measurement": "EC50", "setting": "[2]", "value": 0.0769, "unit": "nM"},
      {"measurement": "EC50", "setting": "RSV A2 strain; [3]", "value": 0.014, "unit": "nM"}
    ]},
    {"compound": "C#CCOCCOCCOCCOCCOCCCCn1c(CN2C(=O)C3(CCN(C(=O)OC(C)(C)C)CC3)c3ccncc32)nc2cc(Cl)ccc21", "note": "[Int-42]", "values": [
      {"measurement": "EC50", "setting": "RSV Long", "value": 17, "unit": "nM"},
      {"measurement": "EC50", "setting": "RSV Long strain; [3]", "value": 0.22, "unit": "nM"},
      {"measurement": "EC50", "setting": "RSV B1", "value": 13, "unit": "nM"},
      {"measurement": "EC50", "setting": "RSV A2 strain; [3]", "value": 0.88, "unit": "nM"}
    ]}
  ]
}
